≈ marks a conversion by molar mass, not a printed value.
What was measured:
[1] = system: pyruvate dehydrogenase complex; assay: KDHC activity assay, negative control strain lysate; assay type: biochemical, E. coli; details: 25 mM 2-keto acid, 30° C.
Method: Cells were grown to an OD600 of ˜0.4 in 5 mL LB medium at 37° C., followed by adding 1 mM IPTG. Protein expression was performed at 30° C. for 2 h. Then 1.8 mL of cells were centrifuged at 16,000×g for 10 min, resuspended in 300 μL BugBuster Protein Extraction Reagent (Novagen), and incubated at room temperature for 20 min for cell lysis. Then samples were centrifuged for 20 min, 16,000×g, at 2° C. The soluble fractions were transferred to chilled 1.5 mL tubes, and the insoluble fractions were suspended in 200 μL BugBuster forming a slurry and kept on ice. KDHC activities were measured by following the conversion of 2-keto acids to acyl-CoA with NAD^+ at 340 nm at 30° C. using a Synergy H1 Hybrid Plate Reader (BioTek Instruments, Inc.). […] Protein concentrations were measured using 5× Advanced Protein Assay Reagent (Cytoskeleton Inc.). […]
To confirm the activity of KDHC, cell lysates from each strain were prepared and activity was tested in vitro with pyruvate, 2-ketovalerate, 2-ketoisovalerate, 3-methylketovalerate, or 4-methylketovalerate as substrate. Activity was measured by detecting the reduction of NAD^+ in the presence of CoA. […]

AL2045 = AL2045 with the acetate assimilating pathway (ackA-pta); 10 g/L acetate
Method: (§1) Growth of strains in culture medium containing 10 g/L glucose, 10 g/L acetate, or 10 g/L glucose and 10 g/L acetate was compared. Cells were grown at 37° C. on a rotary shaker (250 rpm). Overnight cultures were grown in 3 mL Luria Broth containing appropriate antibiotics. The overnight cultures were inoculated 1% in 5 mL M9 minimal media (containing appropriate antibiotics and 1 mM IPTG) and labeled carbon source in 15-ml screw-cap tubes.
(§2) Next, the growth of JCL260 and AL2045, which contains ΔaceEF with and without the acetate assimilating pathway (ackA-pta), was compared (FIG. 21).

JCL260 = JCL260 without the acetate assimilating pathway; 10 g/L acetate
Method: as §1, §2

[2] = cited from earlier work
[3] = Partitioning between hexadecane layer and culture during production; assay type: physicochemical; details: equal volume of hexadecane over the culture
Method: Cells were grown in 20 mL media in 250 mL screw-cap flasks at 37° C. until OD600 0.4, then 1 mM IPTG was added. […] Errors are SD (n=3). […] Then 20 mL of culture was transferred to a 250 mL screw-cap flask. […] The strong agitation at which the flask was shaking caused the hexadecane layer to become an emulsion with micelles of culture, but the majority of the culture layer underneath is discernible. The cultures were allowed to produce at 30° C. on a rotary shaker (250 rpm) for 24-96 h. […] For hexadecane layer assisted isobutyl acetate production, the centrifugation of the hexadecane samples separates the aqueous and hexadecane layer into two clear layers. […] The same volume of ethyl acetate (Sigma-Aldrich) as culture was added into the tubes to extract tetradecyl acetate and isobutyl isobutyrate after production at room temperature. These samples were mixed for 1 min and settled for 30 min on ice. The each sample was centrifuged with 20,000×g for 1 min. Then, 1 mL of supernatant was taken for GC analysis.

E. coli JCL260 = assay: Effect of isobutyl acetate on E. coli growth (toxicity experiments); assay type: cell-based; details: 3 g L^−1 isobutyl acetate; JCL260, 30° C., M9P with 50 g L^−1 glucose
Method: JCL260 was grown at 30° C. in 5 mL M9P media containing 50 g L^−1 glucose in 15 mL screw-cap tubes. Black Arrow indicates the time point when isobutyl acetate: none (light gray), 1 g L^−1 (black), or 3 g L^−1 (dark gray) was added into culture. Error bars are SD (n=3).
This strain produced 4.5-fold more isobutyl acetate (2.7 g L^−1) in the first 24 h compared to JCL260 (FIG. 12b-c). This production represents 60% of the theoretical maximum yield (0.42 g isobutyl acetate/g glucose).

With `CCCC(=O)C(=O)O` [2-ketovalerate] the “activity of negative control strain with 2-keto acid as substrate” value [1] was 30 nmol NADH/min/mg protein.

For `CC(=O)O` [Acetate], the “effect of acetate on growth” value (AL2045) was “enhanced the growth” and the “effect of acetate on growth” value (JCL260) was “inhibited the growth”.

In the case of `CC(C)COC(=O)C(C)C` [Isobutyl isobutyrate, isobutyl isobutyrate], the water solubility [2] is listed as 0.52 mg/mL (≈ 3.61 mM).

With `CC(C)CO` [isobutanol] the “remained in the culture” value [3] was 86%.

With `CC(=O)OCC(C)C` [isobutyl acetate] the “E. coli growth in the presence of isobutyl acetate” value (E. coli JCL260) was “unable to grow” and the “extracted into the hexadecane” value [3] was 97%.
